≈ marks a conversion by molar mass, not a printed value. Read-outs that look alike come from different tables or passages of the source.
Key:
[1] = system: DFMO treated Chinese hamster ovary (CHO) cells; assay: DFMO/spermidine rescue assay in CHO cells (Assay 2); assay type: cell-based; settings: Cricetulus griseus
CHO cells [2] = assay: Ant44 rescue assay in CHO cells (Assay 1); assay type: cell-based, Chinese hamster; settings: for EC50 / IC50: Cricetulus griseus
CHO cells [3] = assay: Cytotoxicity screen in CHO cells
L3.6pl cells [4] = assay: Ant44 assay in L3.6pl cells; assay type: cell-based, human
Method: For example, in the ANT44 assay an EC48=9 means that the PTI molecule at 9 μM was able to block 48% of the Ant44 entry into L3.6 pl human Pancreatic ductal adenocarcinoma cells after 72 h incubation time at 37° C. Another explanation, is that the PTI was able to disrupt […] of the intracellular trafficking of Ant44 that leads to toxicity. Recall a polyamine transport inhibitor can work at any one (or more than one) of the different steps involved in the multi-step polyamine import and intracellular trafficking process. Blocking the entering spermidine from reaching its intended intracellular target is another way in which these compounds may function.
The higher EC value denotes the compound is giving a relative % growth of L3.6 pl cells consistent with inhibiting either Ant44 uptake or blocking the uptake of the rescuing dose of spermidine. Alternatively these compounds may disrupting the intracellular trafficking of Ant44 and spermidine so they cannot reach their intended intracellular target.

L3.6pl cells [5] = assay: cells; assay type: cell-based
Solubility = assay type: physicochemical; settings: for solubility: PBS
[6] = Microsomal stability, human; assay type: in vitro ADME
[7] = Microsomal stability, mouse; assay type: in vitro ADME
[8] = Microsomal stability, rat; assay type: in vitro ADME
Plasma stability, human = assay type: in vitro ADME
Plasma stability, mouse = assay type: in vitro ADME
Plasma stability, rat = assay type: in vitro ADME
[9] = summary of Table 6 (human, mouse, rat)

SMILES: COc1ccc(C(=O)Nc2ccc(N3CCN(c4ccccc4OC)CC3)cc2C(=O)O)cc1 [SBI-0800678]
- EC50 ([1]; CHO, Table 2): ~25 µM
- IC50 ([1]; Table 1 HTS top hits, CHO cells, read-out: DFMO Assay IC50): 15 to 25 µM
- EC50 (CHO cells [2]; CHO, Table 2, Active in Ant44 assay?, read-out: Ant44 assay EC50 in CHO): ~20 µM
- IC50 (CHO cells [2]; CHO, Table 7, read-out: SAR IC50 Ant44 assay): 9 µM
- EC50 (CHO cells [2]; Table 1 HTS top hits, CHO cells, read-out: Ant44 EC50): 20 µM
- IC50 (CHO cells [2]; Table 4B, CHO cells, read-out: Ant44 IC50): 9 µM
- Active in Ant44 assay? (CHO cells [2]; Table 2, in CHO): Yes
- IC50 at 48 h (CHO cells [3]; Chinese hamster, CHO K1 cells): > 40 µM
- CHO MTD (CHO cells [3]; hamster): >32 µM
- Tox (Ant44) (CHO cells [3]; toxic above the stated concentration, CHO cells, listed with Ant44 assay): SBI- 0800678.0001 (20 EC50) Tox >20 μM
- tox (DFMO Assay) (CHO cells [3]; toxic above the stated concentration, CHO cells, listed with DFMO assay): > 15 µM
- worked in Assay 1 (Ant44) (L3.6pl cells [4]): worked
- IC50 (L3.6pl cells [5]; Homo sapiens, L3.6pl, relative growth after 72 h, read-out: L3.6pl IC50): 13.3 ± 0.04 µM
- L3.6pl MTC (L3.6pl cells [5]; maximum tolerated concentration where cells are >90% viable): 6 µM
- solubility in PBS (Solubility): poorly soluble
- solubility (Solubility; aqueous buffer, pH 5.0): 0.3 µg/mL (≈ 0.65 µM)
- solubility (Solubility; pH 6.2, aqueous buffer): 0.1 µg/mL (≈ 0.217 µM)
- solubility (Solubility; pH 7.4, aqueous buffer): > 0.1 µg/mL
- Microsomal Stability % remaining at 1 hour ([6]; Human): 52.0%
- microsomal stability [6, 9]: good
- Microsomal Stability % remaining at 1 hour [7]: 60.4%
- Microsomal Stability % remaining at 1 hour [8]: 58.0%
- Plasma Stability % remaining at 3 hours (Plasma stability, human; Human): 88.0%
- plasma stability (Plasma stability, human; [9]): good
- Plasma Stability % remaining at 3 hours (Plasma stability, mouse): 83.1%
- Plasma Stability % remaining at 3 hours (Plasma stability, rat): 55.3%
